Test systems include CCRF-CEM leukemia; SK-OV-3 ovarian; HOP-92 NSCLC; K-562 leukemia; SNB-19 CNS; TK-10 renal; MDA-MB-231 breast; NCI-H460 lung; KM12 colon; NCI-H522 lung.
What all share (test): inhibition of tumour cell growth, NCI panel, 48 h

Values joined by “and” are separate entries in the source; they are usually repeats but may differ in a detail not shown here. Identical values can stand only once.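 Briefly, cells in 96-well plates were exposed to five compound concentrations for 48 h, and endpoints were estimated by linear interpolation. GI50 marks 50% less growth. The concentration for full growth arrest is given as TGI.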

Take `Oc1ccc(O)c2c1C1(Cl)C(Cl)=C(Cl)C2(Cl)C1(Cl)Cl`: the GI50 in the test on CCRF-CEM leukemia was 4.14 µM; in the test on SK-OV-3 ovarian it was 7.41 µM; in the test on HOP-92 NSCLC it was 1.51 µM; in the test on K-562 leukemia, 2.94 µM; with SNB-19 CNS it was 9.45 µM; in the test on TK-10 renal, 4.96 µM. In addition, the GI50 in the test with MDA-MB-231 breast is 4.65 µM; in the test with NCI-H460 lung it was 2.86 µM; in the test on KM12 colon, 2.44 µM; in the test with NCI-H522 lung, 3.55 µM. The TGI in the test on CCRF-CEM leukemia is more than 100 µM; in the test with SK-OV-3 ovarian, 20.4 µM; with HOP-92 NSCLC it was 7.13 µM; in the test with K-562 leukemia, 93 µM; with SNB-19 CNS, 27.3 µM; in the test with TK-10 renal, 27.7 µM. Further, the TGI in the test on MDA-MB-231 breast was 23 µM; in the test with NCI-H460 lung, 8.94 µM; in the test on KM12 colon, 7.62 µM; in the test with NCI-H522 lung it was 12.1 µM.

Take `Cc1cc(Cl)ccc1Nc1nc(C(F)(F)F)ccc1C(=O)Nc1cccc(C(F)(F)F)c1`: the GI50 with CCRF-CEM leukemia is 3.41 µM; with SK-OV-3 ovarian, 2.44 µM; with HOP-92 NSCLC it was 2.21 µM; in the test with K-562 leukemia it was 2.59 µM; in the test with SNB-19 CNS it was 4.45 µM; in the test with TK-10 renal, 4.4 µM. For the same molecule, the GI50 in the test on MDA-MB-231 breast is 2.03 µM; with NCI-H460 lung it was 3.07 µM; in the test with KM12 colon it was 2.1 µM; in the test with NCI-H522 lung, 3.47 µM. Besides, the TGI in the test on CCRF-CEM leukemia was 14.7 µM; with SK-OV-3 ovarian, 10.8 µM; in the test with HOP-92 NSCLC it was 8.16 µM; with K-562 leukemia, 11.2 µM; in the test on SNB-19 CNS it was 15.8 µM; in the test with TK-10 renal it was 21 µM. For the same molecule, the TGI in the test on MDA-MB-231 breast amounted to 8.15 µM; with NCI-H460 lung, 10.6 µM; in the test with KM12 colon, 12.1 µM; in the test on NCI-H522 lung, 13.4 µM.

Regarding `NCCSC(C[N+](=O)[O-])c1ccccc1Cl` (stereo not drawn), the GI50 was 3.8 µM with CCRF-CEM leukemia; 11.7 µM in the test with SK-OV-3 ovarian; 12.5 µM in the test with HOP-92 NSCLC; 2.96 µM in the test with K-562 leukemia; 3.38 µM in the test with SNB-19 CNS; 5.59 µM in the test on TK-10 renal. Besides, the GI50 in the test with MDA-MB-231 breast was 12 µM; with NCI-H460 lung it was 11.8 µM; in the test on KM12 colon, 1.82 µM; in the test on NCI-H522 lung it was 24.9 µM. In addition, the TGI in the test with CCRF-CEM leukemia was more than 86.7 µM; in the test with SK-OV-3 ovarian, 24 µM; in the test on HOP-92 NSCLC, 47.2 µM; in the test with K-562 leukemia, more than 23.7 µM; in the test with SNB-19 CNS it was 11.5 µM; in the test with TK-10 renal it was 19 µM. Further, the TGI in the test with MDA-MB-231 breast is 25.8 µM; with NCI-H460 lung it was 32 µM; in the test with KM12 colon, 3.42 µM; in the test with NCI-H522 lung, more than 56.1 µM.

For the molecule `O=C1C=C(OCCCl)C(=O)c2c(O)ccc(O)c21`, the GI50 is 1.32 µM in the test on CCRF-CEM leukemia; 25.2 µM in the test on SK-OV-3 ovarian; 3.43 µM in the test on HOP-92 NSCLC; 1.17 µM with K-562 leukemia; 3 µM in the test on TK-10 renal; 3.29 µM with MDA-MB-231 breast. Also, the GI50 with NCI-H460 lung is 2.15 µM; with KM12 colon it was 6.4 µM; in the test with NCI-H522 lung, 1.57 µM. In addition, the TGI with CCRF-CEM leukemia is 3.5 µM; in the test with HOP-92 NSCLC, 3.8 µM and 8 µM; in the test on K-562 leukemia it was 3.11 µM; in the test on SNB-19 CNS, 2.56 µM; with TK-10 renal it was 5.55 µM and 6.83 µM; with MDA-MB-231 breast, 3.27 µM and 8.96 µM. Further, the TGI with NCI-H460 lung was 2.05 µM and 4.67 µM; with KM12 colon it was 4.38 µM and 20.6 µM; in the test on NCI-H522 lung it was 4.44 µM and 3.14 µM.

Consider `CN(C)N=Nc1nn(C(=O)Nc2ccc(Cc3ccccc3)cc2)c2ccccc12`, for which the GI50 in the test on CCRF-CEM leukemia is 4.42 µM; in the test with SK-OV-3 ovarian it was more than 100 µM; in the test on HOP-92 NSCLC it was 6.47 µM; in the test with K-562 leukemia it was 0.0373 µM; with SNB-19 CNS, more than 100 µM; in the test with TK-10 renal it was more than 100 µM. Further, the GI50 in the test on MDA-MB-231 breast is 1.37 µM; in the test on NCI-H460 lung it was 0.111 µM; in the test with KM12 colon, 0.312 µM; in the test with NCI-H522 lung it was 1.9 µM. Also, the TGI in the test with CCRF-CEM leukemia, in the test with SK-OV-3 ovarian, in the test with HOP-92 NSCLC, with K-562 leukemia, in the test on SNB-19 CNS and in the test with TK-10 renal was more than 100 µM throughout. The TGI with MDA-MB-231 breast, with NCI-H460 lung, in the test with KM12 colon and with NCI-H522 lung was more than 100 µM in each case.

`CNc1ncc2cc(Oc3ccc(F)cc3F)c(=O)n(C)c2n1`: the GI50 in the test with CCRF-CEM leukemia was more than 25 µM; in the test with SK-OV-3 ovarian, more than 25 µM; with HOP-92 NSCLC, 3.82 µM; in the test on K-562 leukemia it was more than 25 µM; in the test on SNB-19 CNS, more than 25 µM; in the test on TK-10 renal, more than 23.1 µM. In addition, the GI50 was more than 24.1 µM in the test with MDA-MB-231 breast, more than 25 µM in the test on NCI-H460 lung, more than 25 µM in the test on KM12 colon and more than 25 µM with NCI-H522 lung. Also, the TGI with CCRF-CEM leukemia, with SK-OV-3 ovarian, in the test on HOP-92 NSCLC, with K-562 leukemia, in the test on SNB-19 CNS and with TK-10 renal was more than 25 µM in each case. Also, the TGI in the test with MDA-MB-231 breast, with NCI-H460 lung, in the test on KM12 colon and in the test with NCI-H522 lung was more than 25 µM each time.

Take `Nc1cc(-c2ccccc2)n(C(=O)Nc2ccc(Oc3ccccc3)cc2)n1`: the GI50 in the test with CCRF-CEM leukemia is 18.9 µM; in the test with SK-OV-3 ovarian it was 68.9 µM; in the test with HOP-92 NSCLC, 24.2 µM; in the test on K-562 leukemia, more than 100 µM; in the test on SNB-19 CNS it was 91.5 µM; in the test on TK-10 renal, 69.7 µM. Further, the GI50 with MDA-MB-231 breast is 27.3 µM; with NCI-H460 lung, 69 µM; in the test with KM12 colon, more than 100 µM; in the test with NCI-H522 lung, 54.7 µM. The TGI with CCRF-CEM leukemia was 93.3 µM; with SK-OV-3 ovarian, more than 100 µM; in the test on HOP-92 NSCLC, more than 100 µM; with K-562 leukemia it was more than 100 µM; with SNB-19 CNS, more than 100 µM; with TK-10 renal, more than 100 µM. For the same molecule, the TGI with MDA-MB-231 breast, with NCI-H460 lung, in the test with KM12 colon and with NCI-H522 lung was more than 100 µM throughout.

For the molecule `CNC(=O)c1cncc(/C=C/c2c(Cl)cccc2Cl)c1`, the GI50 is more than 25 µM in the test on CCRF-CEM leukemia; more than 25 µM with SK-OV-3 ovarian; 2.31 µM in the test on HOP-92 NSCLC; 8.14 µM with K-562 leukemia; more than 22.4 µM with SNB-19 CNS; 12.9 µM with TK-10 renal. The GI50 with MDA-MB-231 breast was more than 15.8 µM; in the test with NCI-H460 lung it was more than 25 µM; in the test with KM12 colon, more than 22.4 µM; with NCI-H522 lung it was 8.38 µM. The TGI with CCRF-CEM leukemia, with SK-OV-3 ovarian, with HOP-92 NSCLC, in the test with K-562 leukemia, in the test with SNB-19 CNS and with TK-10 renal was more than 25 µM throughout. The TGI with MDA-MB-231 breast, with NCI-H460 lung, in the test on KM12 colon and with NCI-H522 lung was more than 25 µM each time.

The record behind these values is PubChem BioAssay (NCI).
